In PubChem BioAssay (NCI):
Several values for one entry are separate records, joined by “and”; a condition that tells them apart may be missing. Equal values may be shown once.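 Step 1: Grow cells in 96-well plates. Step 2: Expose to compound for 48 hours at 5 concentrations. Step 3: Interpolate endpoints linearly; if unreached, use highest concentration. GI50 = concentration required for 50% inhibition of growth. TGI: total growth inhibition.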

What was measured:
Assay in all cases: DTP human tumour cell line panel, 48 h
SF-539 CNS = test system: SF-539 CNS
T-47D breast = test system: T-47D breast
HOP-62 NSCLC = test system: HOP-62 NSCLC
SK-MEL-28 melanoma = test system: SK-MEL-28 melanoma
NCI-H522 lung = test system: NCI-H522 lung
SF-295 CNS = test system: SF-295 CNS
NCI-H226 lung = test system: NCI-H226 lung
KM12 colon = test system: KM12 colon

| Compound | TGI (SF-539 CNS) | TGI (T-47D breast) | TGI (HOP-62 NSCLC) | TGI (SK-MEL-28 melanoma) [µM] | TGI (NCI-H522 lung) | TGI (SF-295 CNS) | TGI (NCI-H226 lung) | TGI (KM12 colon) | GI50 (SF-539 CNS) [µM] | GI50 (T-47D breast) [µM] | GI50 (HOP-62 NSCLC) | GI50 (SK-MEL-28 melanoma) | GI50 (NCI-H522 lung) [µM] | GI50 (SF-295 CNS) [µM] | GI50 (NCI-H226 lung) [µM] | GI50 (KM12 colon) |
| --- | --- | --- | --- | --- | --- | --- | --- | --- | --- | --- | --- | --- | --- | --- | --- | --- |
| Cc1[nH]nc(C(F)(F)F)c1N=NN(C)C | 20.7 µM | > 100 µM | 27 µM | 33 | 2.98 µM | 25.7 µM | 6.36 µM | 29.3 µM |  |  |  |  |  |  |  |  |
| CCOC(=O)c1cc2cc3c4c(c2oc1=O)CCCN4CCC3 | 58.2 µM | 53.6 µM | > 100 µM | > 100 | 45.6 µM | > 100 µM | 51.3 µM | 61.9 µM |  |  |  |  |  |  |  |  |
| CC(=O)Oc1ccc(C23c4ccccc4C2(OC(C)=O)c2cc(OC(C)=O)ccc23)cc1 (stereo not drawn) | 28.6 µM | 7.45 µM | 34.5 µM | > 100 | 8.04 µM | 20.4 µM | 63.2 µM | 11.2 µM | 6.48 | 2.22 | 8.78 µM | 31.6 µM | 2.81 | 4.37 | 20.4 | 3.34 µM |
| O=C(O)c1ccc(CI)cc1 | 32.1 µM | 48 µM | 36.1 µM | 31.9 | 11.8 µM | 21.6 µM | 44.1 µM |  |  |  |  |  |  |  |  |  |
| O=S(=O)(NC1=NCCN1C(=S)SN1CCn2c1nsc2=S)c1cccc2ccccc12 | 46 µM | > 100 µM | 54.3 µM | > 100 | 36.1 µM | 71.1 µM | > 100 µM | 41.4 µM | 21.1 | 20.2 | 20.6 µM | 58.6 µM | 12.2 | 18.4 | 30.6 | 17.3 µM |
| CCCCCCCCOC(=O)CC[C@@H](C)[C@H]1CC[C@H]2[C@@H]3[C@H](OC(=O)CCN)C[C@@H]4C[C@H](OC(=O)CCN)CC[C@]4(C)[C@H]3C[C@H](OC(=O)CCN)[C@]12C | 8.77 µM | 39.9 µM | 7.14 µM | 15.1 | 4.42 µM | 15.9 µM | 44.8 µM | 7.51 µM | 3.01 | 12.3 | 2.71 µM | 3.52 µM | 2.26 | 3.51 | 13 | 3.04 µM |
| O=S(=O)(NCCNc1nccc(-c2c(-c3ccc(F)c(O)c3)nc3sccn23)n1)c1ccc(F)cc1 | 25.3 µM | 28 µM | 74.4 µM | 21.9 | 19.2 µM | 39.7 µM | 20.4 µM | 14.6 µM | 4.54 | 5.02 | 5.09 µM | 0.429 µM | 3.31 | 3.41 | 4.01 | 2.89 µM |
| CS(=O)(=O)CCNCc1cc(-c2cc3c(Nc4ccc(OCc5cccc(F)c5)c(Cl)c4)ncnc3s2)cs1 | > 25 µM | > 23.6 µM | > 25 µM | > 25 | > 25 µM | > 25 µM | > 25 µM | > 25 µM | 9.92 | 3 | > 16.8 µM | 12.5 µM | 9.64 | 9.89 | 15.1 | 6.55 µM |
| Cc1nc(N)nc2c1CCC(O)S2 (stereo not drawn) | 27.9 µM | 30.2 µM | 18.5 µM | 28.9 | 34 µM | 44.3 µM |  | 19.6 µM | 12.3 | 5.25 | 5.44 µM | 6.11 µM | 17 | 14.8 |  | 5.46 µM |
| O=C(O)c1ccc(NCn2nc(-c3ccccc3O)oc2=S)cc1 |  | > 100 µM | > 100 µM | > 100 | > 100 µM | > 100 µM | > 100 µM | > 100 µM |  | > 100 | 47.2 µM | > 100 µM | > 100 | > 100 | > 100 | > 100 µM |
| COc1cc2ncn(-c3cc(OCc4ccccc4C(F)(F)F)c(C(=O)N(C)C)s3)c2cc1OC | > 25 µM | > 17 µM | > 25 µM | > 25 | > 25 µM | > 25 µM | > 12.5 µM | > 25 µM | > 25 | 7.02 | > 13.5 µM | > 25 µM | 17.3 | > 22.6 | 5.85 | > 25 µM |
| CN(CCCCCl)P(=O)(OCCS(=O)(=O)CC(NC(=O)CCC(N)C(=O)O)C(=O)NC(C(=O)O)c1ccccc1)OCC1OC(n2ccc(N)nc2=O)C(F)(F)C1O (stereo not drawn) | 0.689 µM | > 100 µM | > 85.9 µM | > 100 | > 100 µM | 2.71 µM | > 93.3 µM | > 100 µM | 0.0338 | 1.33 | 0.0861 µM | 5.06 µM | 3.79 | 0.334 | 8.03 | 14.6 µM |
| O=[N+]([O-])c1cc(Cl)c2[nH]c3c(Cl)cc([N+](=O)[O-])cc3c2c1 | > 92.2 µM | > 100 µM | > 38.4 µM | > 100 | > 100 µM | 1.99 µM | > 100 µM | > 100 µM | 0.653 | 0.254 | 0.971 µM | 0.47 µM | 0.286 | 0.229 | 0.393 | 0.354 µM |
| C=CCn1c(C)nc2ccc(Nc3nc(Nc4ccc(F)cc4)nc4ccccc34)cc21 | 25.7 µM | 4.23 µM |  | 3.13 | 13.4 µM | 20.3 µM |  | 16.4 µM | 12.3 | 1.7 |  | 1.65 µM | 3.12 | 6.08 |  | 4.07 µM |
| CC1CCC2(NC1)OC1CC3C4CC=C5CC(O)CCC5(C)C4CCC3(C)C1C2C (stereo not drawn) | 40.1 µM and 29.4 µM | 49 µM and 48.9 µM | 92.4 µM and 46.2 µM | > 100 | > 100 µM and 62.9 µM | 92.7 µM and > 64.3 µM | > 100 µM and 66.5 µM | 47.4 µM and 64.4 µM |  |  | 27.4 µM and 9.34 µM | 56.4 µM and 25.6 µM |  |  |  | 14 µM and 6.75 µM |
| Cc1nc(-c2ccccc2)n2nc(NCCCN3CCOCC3)ncc12 | > 25 µM | > 25 µM | > 25 µM | > 25 | > 25 µM | > 25 µM | > 25 µM | > 25 µM | > 25 | > 25 | > 25 µM | > 25 µM | > 25 | > 25 | > 8.17 | > 25 µM |
